Data published in patent publication US8414914B2, “Compositions for mucosal delivery of agents” (Virun, Inc., priority 2004, dated 2013).

Test: IV study in dogs: plasma insulin and glucose after IV injection of human insulin
Format: in vivo, Mongrel dogs
Protocol: Oral bioavailability of insulin composition was determined using an IV study followed by an oral crossover study and the relative areas of under the curve, plasma half life, Cmax, and Tmax was calculated. […] Following data collection, plasma concentration, plasma half-life, peak concentration (Cmax) and time to reach Cmax (tmax) were determined. From the areas under the curve, percent oral bioavailability was determined.

[1] = dog #71, IV 0.01 mg/kg, 120 min
[2] = dog #71, IV 0.01 mg/kg, 180 min
[3] = dog #71, IV 0.01 mg/kg, 240 min
[4] = dog #72, IV 0.01 mg/kg, 120 min
[5] = dog #72, IV 0.01 mg/kg, 180 min
[6] = dog #72, IV 0.01 mg/kg, 240 min

Substance: human insulin: human insulin given by IV injection (0.01 mg/kg) as reference in the dog study
- Plasma Glucose (dog #71, IV 0.01 mg/kg, 2 min): 89 mg/dL
- Plasma Insulin (dog #71, IV 0.01 mg/kg, 2 min): 50.2 ng/mL
- Plasma Glucose (dog #71, IV 0.01 mg/kg, 5 min): 82 mg/dL
- Plasma Insulin (dog #71, IV 0.01 mg/kg, 5 min): 26.6 ng/mL
- Plasma Glucose (dog #71, IV 0.01 mg/kg, 10 min): 57 mg/dL
- Plasma Glucose (dog #71, IV 0.01 mg/kg, 15 min): 46 mg/dL
- Plasma Insulin (dog #71, IV 0.01 mg/kg, 15 min): 10.1 ng/mL
- Plasma Glucose (dog #71, IV 0.01 mg/kg, 20 min): 41 mg/dL
- Plasma Glucose (dog #71, IV 0.01 mg/kg, 25 min): 42 mg/dL
- Plasma Insulin (dog #71, IV 0.01 mg/kg, 25 min): 5.9 ng/mL
- Plasma Glucose (dog #71, IV 0.01 mg/kg, 40 min): 39 mg/dL
- Plasma Glucose (dog #71, IV 0.01 mg/kg, 60 min): 48 mg/dL
- Plasma Glucose [1]: 69 mg/dL
- Plasma Insulin [1]: 0.19 ng/mL
- Plasma Glucose [2]: 87 mg/dL
- Plasma Insulin [2]: 0.08 ng/mL
- Plasma Glucose [3]: 86 mg/dL
- Plasma Insulin [3]: 0.08 ng/mL
- Plasma Glucose (dog #72, IV 0.01 mg/kg, 2 min): 89 mg/dL
- Plasma Insulin (dog #72, IV 0.01 mg/kg, 2 min): 27.3 ng/mL
- Plasma Glucose (dog #72, IV 0.01 mg/kg, 5 min): 60 mg/dL
- Plasma Insulin (dog #72, IV 0.01 mg/kg, 5 min): 21.4 ng/mL
- Plasma Glucose (dog #72, IV 0.01 mg/kg, 10 min): 31 mg/dL
- Plasma Glucose (dog #72, IV 0.01 mg/kg, 15 min): 28 mg/dL
- Plasma Glucose (dog #72, IV 0.01 mg/kg, 20 min): 35 mg/dL
- Plasma Insulin (dog #72, IV 0.01 mg/kg, 20 min): 3.4 ng/mL
- Plasma Glucose (dog #72, IV 0.01 mg/kg, 25 min): 24 mg/dL
- Plasma Glucose (dog #72, IV 0.01 mg/kg, 40 min): 21 mg/dL
- Plasma Insulin (dog #72, IV 0.01 mg/kg, 40 min): 0.7 ng/mL
- Plasma Glucose (dog #72, IV 0.01 mg/kg, 60 min): 33 mg/dL
- Plasma Insulin (dog #72, IV 0.01 mg/kg, 60 min): 0.2 ng/mL
- Plasma Glucose [4]: 68 mg/dL
- Plasma Insulin [4]: 0.04 ng/mL
- Plasma Glucose [5]: 102 mg/dL
- Plasma Insulin [5]: 0 ng/mL
- Plasma Glucose [6]: 99 mg/dL
- Plasma Insulin [6]: 0.04 ng/mL
